In patent US6875451B2, “Compositions and methods for the treatment of primary and metastatic neoplastic diseases using arsenic compounds” (PolaRx Biopharmaceuticals Inc., priority 1997, dated 2005):

Legend:
Format in all cases: cell-based
BT-549 = test: SRB growth assay, 2 days exposure, breast cancer
Description: (§1) Arsenic trioxide (1 mg/ml, 10 mg/ampoule, manufactured by Taylor Pharmaceuticals, Decatur, Ill.) was tested at five concentrations each at 10-fold dilutions, i.e., 10^−5, 10^−6, 10^−7, 10^−8 and 10^−9 μg/ml.
(§2) The in vitro tests were performed by incubating the test cells in the presence of the indicated concentration of arsenic trioxide under standard culture conditions for a designated period of time, which is followed by a sulforhodamine B (SRB) protein assay to estimate cell viability or growth. The cell lines are organized into subpanels according to the origin of the cell lines, e.g., leukemia, breast cancer, etc. A description of the cell lines and method of testing is described in Monk et al. (1997, Anticancer Drug Des. 12:533-41) and Weinstein et al., (1997, Science 275:343-9), which are incorporated herein in their entirety.
(§3) The measurement of an effect is expressed in Percentage Growth (PG). The measured effect of the compound on a cell line is calculated according to one or the other of the following two expressions: If (Mean ODtest−Mean ODzero)≧0. then PG=100×(Mean ODtest−Mean ODzero)/(Mean ODctrl−Mean ODzero) If (Mean ODtest−Mean ODzero)<0. then PG=100×(Mean ODtest−Mean ODzero)/(Mean ODzero where: • Mean ODzero=the average of optical density measurements of SRB-derived color just before exposure of cells to the test compounds; • Mean ODtest=the average of optical density measurements of SRB-derived color after exposure of cells to the test compound for a designated period of time; and • Mean ODctrl=the average of optical density measurements of SRB-derived color after with no exposure of cells to the test compound for a designated period of time
(§4) The first two columns describe the subpanel (e.g., leukemia) and cell line (e.g., CCRF-CEM) involved. The next two columns list the Mean ODzero and Mean ODctrl; the next five columns list the Mean ODtest for each of five different concentrations. Each concentration is expressed as the log10 (molar or μg/ml). The next five columns list the calculated PGs for each concentration. The response parameters GI50, TGI and LC50 are interpolated values representing the concentrations at which the PG is +50, 0, and −50, respectively. Sometimes these response parameters cannot be obtained by interpolation. If, for instance, all of the PGs in a given row exceed +50, then none of the three parameters can be obtained by interpolation. In such a case, the value given for each response parameter is the highest concentration tested and is preceded by a “>” sign. This practice is extended similarly to the other possible situations where a response parameter cannot be obtained by interpolation.
(§5) In the first set, the cells from 56 different cancer cell lines were exposed to five concentrations of arsenic trioxide continuously for two days prior to performing the SRB assay. In the second set, the cells from 50 different cell lines (a subset of the first 56 cell lines, plus the renal cancer cell line 786-0) were exposed continuously for six days prior to the SRB assay.

HS 578T = test: SRB growth assay, 2 days exposure, breast cancer
Description: as §1, §2, §3, §4, §5

MCF7 = test: SRB growth assay, 2 days exposure, breast cancer
Description: as §1, §2, §3, §4, §5

MDA-MB-231/ATCC = test: SRB growth assay, 2 days exposure, breast cancer
Description: as §1, §2, §3, §4, §5

MDA-MB-435 = test: SRB growth assay, 2 days exposure, breast cancer
Description: as §1, §2, §3, §4, §5

MDA-N = test: SRB growth assay, 2 days exposure, breast cancer
Description: as §1, §2, §3, §4, §5

NCI/ADR-RES = test: SRB growth assay, 2 days exposure, breast cancer
Description: as §1, §2, §3, §4, §5

T-47D = test: SRB growth assay, 2 days exposure, breast cancer
Description: as §1, §2, §3, §4, §5

RXF 393 = test: SRB growth assay, 6 days exposure, renal cancer; details: RXF393, 6 days
Description: as §1, §2, §3, §4, §5

50 different cell lines = test: NCI cancer cell line panel, SRB assay, second set, 6 days exposure (whole panel, mean graph)
Description: as §1, §2
The measurement of an effect is expressed in Percentage Growth (PG). […]
The first two columns describe the subpanel (e.g., leukemia) and cell line (e.g., CCRF-CEM) involved. […] Each concentration is expressed as the log10 (molar or μg/ml). The next five columns list the calculated PGs for each concentration. […]

arsenic trioxide
TGI (BT-549): >0.0126 ng/mL | Percent Growth (BT-549; log10 conc −4.9): 26% | Percent Growth (BT-549; log10 conc −5.9): 84% | Percent Growth (BT-549; log10 conc −6.9): 108% | Percent Growth (BT-549; log10 conc −7.9): 110% | Percent Growth (BT-549; log10 conc −8.9): 114% | TGI (HS 578T): >0.0126 ng/mL | Percent Growth (HS 578T; log10 conc −4.9): 42% | Percent Growth (HS 578T; log10 conc −5.9): 105% | Percent Growth (HS 578T; log10 conc −6.9): 96% | Percent Growth (HS 578T; log10 conc −7.9): 105% | Percent Growth (HS 578T; log10 conc −8.9): 109% | TGI (MCF7): >0.0126 ng/mL | Percent Growth (MCF7; log10 conc −4.9): 11% | Percent Growth (MCF7; log10 conc −5.9): 95% | Percent Growth (MCF7; log10 conc −6.9): 108% | Percent Growth (MCF7; log10 conc −7.9): 98% | Percent Growth (MCF7; log10 conc −8.9): 99% | TGI (MDA-MB-231/ATCC): >0.0126 ng/mL | Percent Growth (MDA-MB-231/ATCC; log10 conc −4.9): 3% | Percent Growth (MDA-MB-231/ATCC; log10 conc −5.9): 107% | Percent Growth (MDA-MB-231/ATCC; log10 conc −6.9): 109% | Percent Growth (MDA-MB-231/ATCC; log10 conc −7.9): 102% | Percent Growth (MDA-MB-231/ATCC; log10 conc −8.9): 97% | TGI (MDA-MB-435): >0.0126 ng/mL | Percent Growth (MDA-MB-435; log10 conc −4.9): 21% | Percent Growth (MDA-MB-435; log10 conc −5.9): 94% | Percent Growth (MDA-MB-435; log10 conc −6.9): 105% | Percent Growth (MDA-MB-435; log10 conc −7.9): 93% | Percent Growth (MDA-MB-435; log10 conc −8.9): 94% | TGI (MDA-N): >0.0126 ng/mL | Percent Growth (MDA-N; log10 conc −4.9): 3% | Percent Growth (MDA-N; log10 conc −5.9): 86% | Percent Growth (MDA-N; log10 conc −6.9): 91% | Percent Growth (MDA-N; log10 conc −7.9): 101% | Percent Growth (MDA-N; log10 conc −8.9): 102% | TGI (NCI/ADR-RES): >0.0126 ng/mL | Percent Growth (NCI/ADR-RES; log10 conc −4.9): 45% | Percent Growth (NCI/ADR-RES; log10 conc −5.9): 92% | Percent Growth (NCI/ADR-RES; log10 conc −6.9): 104% | Percent Growth (NCI/ADR-RES; log10 conc −7.9): 99% | Percent Growth (NCI/ADR-RES; log10 conc −8.9): 118% | TGI (T-47D): 0.00986 ng/mL | Percent Growth (T-47D; log10 conc −4.9): −10% | Percent Growth (T-47D; log10 conc −5.9): 81% | Percent Growth (T-47D; log10 conc −6.9): 133% | Percent Growth (T-47D; log10 conc −7.9): 109% | Percent Growth (T-47D; log10 conc −8.9): 88% | TGI (RXF 393): 2.96E−06 | Mean Optical Densities (RXF 393; Log 10 Concentration −4.9): 0.017 | Percent Growth (RXF 393; Log 10 Concentration −4.9): −91% | Mean Optical Densities (RXF 393; Log 10 Concentration −5.9): 0.909 | Percent Growth (RXF 393; Log 10 Concentration −5.9): 54% | Mean Optical Densities (RXF 393; Log 10 Concentration −6.9): 1.727 | Percent Growth (RXF 393; Log 10 Concentration −6.9): 116% | Mean Optical Densities (RXF 393; Log 10 Concentration −7.9): 1.301 | Percent Growth (RXF 393; Log 10 Concentration −7.9): 84% | Mean Optical Densities (RXF 393; Log 10 Concentration −8.9): 1.327 | Percent Growth (RXF 393; Log 10 Concentration −8.9): 86% | reducing cell growth (50 different cell lines; second set of tests, all cell lines tested): effective in reducing cell growth against all the cell lines tested | sensitivity at the various principal response parameters (50 different cell lines; several melanoma cell lines): especially sensitive
